Measurements: paper PMC11071649, “Synthesis and Selective Anticancer Activity Evaluation of 2-phenylacrylonitrile Derivatives as Tubulin Inhibitors” (Current Medicinal Chemistry, 2024)

Columns and labels:
Type in all cases: cell-based, human
A549 lung cancer cell = assay: MTT anti-proliferative assay, A549; details: for IC50: MTT, 48 h
Method: (§1) The anti-proliferation activities of the synthesized analogs were assessed by an in vitro MTT assay conducted on thirteen human cell lines. Their cytotoxic activities were evaluated by measuring the inhibition of net cell growth. […]
(§2) 1.6. Cell lines and cell culture
(§3) MTT was purchased from Sigma-Aldrich Co. (St. Louis, MO, USA). The PI and Annexin V-FITC apoptosis detection kit were purchased from Invitrogen (Eugene, OR, USA). All human cell lines were used in this study. […]
(§4) cell, MCF-7 breast cancer cell, MCF-10A normal breast cell, Raji B lymphoblastoid cell and diffuse large B-cell lymphoma SU-DHL-10 cell were initially purchased from American Type Culture Collection (ATCC, Manassas, Virginia). media, DMEM, and FBS were provided from Gibco Company.
(§5) 1.7. Cell growth inhibition assay (MTT assay)
(§6) The experiment was carried out according to the method of reference. Briefly, cells were plated in 96-well plates at a den- […]
(§7) the anti-proliferative activities were determined by MTT assay. […]
(§8) (Becton-Dickinson, Franklin Lakes, NJ). […]

AGS gastric cancer cell = assay: MTT anti-proliferative assay, AGS; details: for IC50: MTT, 48 h
Method: as §1, §2, §3, §4, §5, §6, §7, §8

[1] = test system: BEL-7402 liver cancer cell; assay: MTT anti-proliferative assay, BEL-7402; details: for IC50: MTT, 48 h
Method: as §1, §2, §3, §4, §5, §6, §7, §8

[2] = test system: HCT116 colectal cancer cell; assay: MTT anti-proliferative assay, HCT116; details: for IC50: MTT, 48 h, read-out: IC50 HCT-116
Method: as §1, §2, §3, §4, §5, §6, §7, §8

[3] = test system: HeLa cervical cancer cell; assay: MTT anti-proliferative assay, HeLa; details: MTT, 48 h
Method: as §1, §2, §3, §4, §5, §6, §7, §8

HepG2 hepatoma cell = assay: MTT anti-proliferative assay, HepG2; details: for IC50: MTT, 48 h, read-out: IC50 HepG-2
Method: as §1, §2, §3, §4, §5, §6, §7, §8

L-02 normal liver cell = assay: MTT assay, L-02 normal cells; details: 48 h
Method: as §1, §2, §3, §4, §5, §6, §7, §8

[4] = test system: MGC-803 late stage differentiation gastric cancer cell; assay: MTT anti-proliferative assay, MGC-803; details: for IC50: MTT, 48 h
Method: as §1, §2, §3, §4, §5, §6, §7, §8

MCF-7 breast cancer cell = assay: MTT anti-proliferative assay, MCF-7; details: MTT, 48 h
Method: as §1, §2, §3, §4, §5, §6, §7, §8

[5] = test system: MCF-10A normal breast cell; assay: MTT assay, MCF-10A normal cells; details: 48 h
Method: as §1, §2, §3, §4, §5, §6, §7, §8

[6] = test system: Raji B lymphoblastoid cell; assay: MTT anti-proliferative assay, Raji; details: for IC50: MTT, 48 h, read-out: IC50 Raji
Method: as §1, §2, §3, §4, §5, §6, §7, §8

[7] = test system: SGC-7901 early differentiation gastric cancer cell; assay: MTT anti-proliferative assay, SGC-7901; details: for IC50: MTT, 48 h
Method: as §1, §2, §3, §4, §5, §6, §7, §8

[8] = test system: diffuse large B-cell lymphoma SU-DHL-10 cell; assay: MTT anti-proliferative assay, SU-DHL-10; details: for IC50: MTT, 48 h, read-out: IC50 SU-DHL-10
Method: as §1, §2, §3, §4, §5, §6, §7, §8

| SMILES | IC50 (A549 lung cancer cell) [µM] | SI (selectivity index), IC50 (L-02)/IC50 (AGS) (AGS gastric cancer cell) | IC50 (AGS gastric cancer cell) [µM] | IC50 [1] [µM] | SI (selectivity index), IC50 (L-02)/IC50 (HCT-116) [2] | IC50 [2] [µM] | IC50 [3] [µM] | SI (selectivity index), IC50 (L-02)/IC50 (HepG-2) (HepG2 hepatoma cell) | IC50 (HepG2 hepatoma cell) [µM] | IC50 (L-02 normal liver cell) [µM] | SI (selectivity index), IC50 (L-02)/IC50 (MGC-803) [4] | IC50 [4] [µM] | IC50 (MCF-7 breast cancer cell) [µM] | IC50 [5] [µM] | IC50 [6] [µM] | SI (selectivity index), IC50 (L-02)/IC50 (SGC-7901) [7] | IC50 [7] [µM] | IC50 [8] [µM] | SI (selectivity index), IC50 (L-02)/IC50 (BEL-7402) [1] | SI (selectivity index), IC50 (L-02)/IC50 (Raji) [6] | other results |
| --- | --- | --- | --- | --- | --- | --- | --- | --- | --- | --- | --- | --- | --- | --- | --- | --- | --- | --- | --- | --- | --- |
| N#C/C(=C\c1cccs1)c1ccc(OC(F)(F)F)cc1 [Compound 1a3b] | > 100 | > 2.3 | 89.8 ± 1 | > 100 | > 1.8 | 30.8 ± 2.9 | > 100 | > 1.6 | > 100 | > 100 | > 1.7 | 41.5 ± 2.1 | > 100 | > 100 | > 100 | > 1.7 | 57.2 ± 14.3 | > 100 | – | – | SI (selectivity index), IC50 (L-02)/IC50 (A549) (A549 lung cancer cell): > 1.1 |
| N#C/C(=C\c1cccc2ccccc12)c1ccc(OC(F)(F)F)cc1 [Compound 1a3c] | > 100 | – | > 100 | > 100 | – | > 100 | > 100 | – | > 100 | > 100 | – | > 100 | > 100 | > 100 | > 100 | – | > 100 | > 100 | – | – | – |
| N#C/C(=C\c1ccccc1)c1cccc(OC(F)(F)F)c1 [Compound 1b2a] | > 100 | – | > 100 | > 100 | – | > 100 | > 100 | – | > 100 | > 100 | – | > 100 | > 100 | > 100 | > 100 | – | > 100 | > 100 | – | – | – |
| N#C/C(=C\c1ccc(F)cc1)c1cccc(OC(F)(F)F)c1 [Compound 1b2b] | > 100 | > 1.9 | 8.2 ± 2.6 | 3 ± 1 | > 14.5 | 1.1 ± 0.3 | > 100 | > 1.0 | 15.9 ± 5.2 | 16.1 ± 1 | > 13.1 | 1.2 ± 0.6 | > 100 | 11.3 ± 2.3 | 17 ± 4.3 | > 2.9 | 5.4 ± 0.2 | 60.4 ± 0.7 | > 5.2 | – | – |
| N#C/C(=C\c1ccc(Cl)cc1)c1cccc(OC(F)(F)F)c1 [Compound 1b2c] | > 100 | – | > 100 | > 100 | – | > 100 | > 100 | – | > 100 | > 100 | – | > 100 | > 100 | > 100 | > 100 | – | > 100 | > 100 | – | – | – |
| N#C/C(=C\c1ccc(Br)cc1)c1cccc(OC(F)(F)F)c1 [Compound 1b2d] | > 100 | > 3.5 | 13.9 ± 4.2 | 14.6 ± 4.6 | – | 15.1 ± 2.9 | 66.8 ± 9.8 | > 1.4 | 34.9 ± 3.2 | 50.4 ± 0.8 | > 4.9 | 10.1 ± 0.9 | > 100 | 34.1 ± 3.6 | 16.3 ± 6.1 | > 2.3 | 21.9 ± 3.3 | 35.6 ± 0.9 | > 3.4 | > 3.0 | SI (selectivity index), IC50 (L-02)/IC50 (SU-DHL-10) [8]: > 1.4 |
| Cc1ccc(/C=C(\C#N)c2cccc(OC(F)(F)F)c2)cc1 [Compound 1b2e] | > 100 | > 11.9 | 4.5 ± 2 | 39.4 ± 6.1 | > 2.1 | 25 ± 0.5 | 61.7 ± 3.3 | > 1.4 | 38.2 ± 0.1 | 54.2 ± 12.3 | > 4.8 | 11.1 ± 0.3 | > 100 | > 100 | 43.1 ± 4.5 | > 6.6 | 8.1 ± 2.9 | 29.3 ± 2 | > 1.3 | > 1.2 | SI (selectivity index), IC50 (L-02)/IC50 (SU-DHL-10) [8]: > 1.8 |
| CCc1ccc(/C=C(\C#N)c2cccc(OC(F)(F)F)c2)cc1 [Compound 1b2f] | > 100 | > 2.2 | 43.8 ± 21.8 | 44.8 ± 10.6 | – | > 100 | > 100 | > 1.9 | 72.9 ± 9.9 | > 100 | > 2.0 | 49.3 ± 0.3 | > 100 | > 100 | > 100 | > 1.6 | 61.7 ± 0.4 | > 100 | > 2.2 | – | – |
| CC(C)c1ccc(/C=C(\C#N)c2cccc(OC(F)(F)F)c2)cc1 [Compound 1b2g] | > 100 | – | > 100 | > 100 | – | > 100 | > 100 | – | > 100 | > 100 | – | > 100 | > 100 | > 100 | > 100 | – | > 100 | > 100 | – | – | – |
| CN(C)c1ccc(/C=C(\C#N)c2cccc(OC(F)(F)F)c2)cc1 [Compound 1b2h] | > 100 | – | > 100 | 1 ± 0.8 | > 153.1 | 0.3 ± 0.2 | > 100 | > 1.3 | 42.3 ± 18.2 | 52 ± 8.4 | > 13.9 | 3.7 ± 1.3 | > 100 | > 100 | 20.1 ± 2.3 | > 7.2 | 7.1 ± 2.4 | > 100 | > 50.5 | > 2.5 | – |
